Data reported in paper PMC10333884, “Large‐scale phosphomimetic screening identifies phospho‐modulated motif‐based protein interactions” (Molecular Systems Biology, 2023).
Where two headings read alike, the source gives them in different places. Non-standard residues stand in square brackets, D forms with d. Residues, ends and D or L forms follow the SMILES beside them. pT = C[C@@H](OP(=O)(O)O)[C@H](N)C(=O)O

Assays:
Type in all cases: binding
[1] = biological target: T1, MAP1LC3B (Homo sapiens, UniProt Q9GZQ8); test: FP displacement assay, MAP1LC3B; conditions: read-out: KD values ± SEM
T1 construct: GST (cleaved yes); made in house; host or cells: Escherichia coli BL21-Gold(DE3)
Method: (§1) FP experiments were performed as described previously (Kliche et al, [2021]). Shortly, in order to monitor the binding event, FITC‐labelled peptides were used (excitation 495 nm, emission: 535 nm) and the FP signal was recorded in mP on a SpectraMax iD5 Multi‐Mode Microplate Reader (Molecular Devices) by measuring the emitted light in two angels. The measurements were performed at room temperature and prepared in nonbinding black half area 96‐well microplates (Corning®; 50 μl/well). For measuring direct binding, that is saturation curves, a 1:1 dilution series of protein domain (25 μl/well) was generated in 50 mM sodium phosphate buffer pH 7.4 and the measurement performed with 5 nM FITC‐labelled peptide (25 μl/well). The buffer‐corrected values were subsequently plotted with PRISM and fitted to the quadratic equation (Gianni et al, [2005]).
(§2) The 1:1 dilution series in this experiment was performed with the unlabelled peptide in 50 mM sodium phosphate buffer pH 7.4, so that each well‐contained unlabelled peptide (25 μl) at a certain concentration and pre‐formed complex (25 μl). The KD values of this indirectly monitored binding event were calculated as described previously (Nikolovska‐Coleska et al, [2004]). All measurements were at least in technical triplicates as well as biological duplicates when indicated. An amplitude shift between repeat measurements in the displacement experiments was occasionally observed due to variations in the protein preparations. If that was the case, the “active” protein concentration was back‐calculated according to the quadratic equation from the saturation curves performed in parallel. By comparing the active protein concentrations in the complex between different protein preparations, the amplitude was normalised.

[2] = biological target: T2, GABARAPL2 (Homo sapiens, UniProt P60520); test: FP displacement assay, GABARAPL2
T2 construct: GABARAPL2_ATG8__P60520_2_115; GST (cleaved yes); made in house; host or cells: Escherichia coli BL21-Gold(DE3)
Method: as §1, §2

[3] = biological target: T3, MAP1LC3B ATG8 (Homo sapiens, UniProt Q9GZQ8); test: ITC, MAP1LC3B ATG8; conditions: for Kd: ITC (iTC200), 50 mM sodium phosphate pH 7.4, 1 mM DTT, average of the runs, at least technical triplicates
T3 construct: MAP1LC3B ATG8; made in house; host or cells: Escherichia coli BL21-Gold(DE3)

[4] = biological target: T4, MAP1LC3A (Homo sapiens, UniProt Q9H492); test: FP displacement assay, MAP1LC3A
T4 construct: GST (cleaved yes); made in house; host or cells: Escherichia coli BL21-Gold(DE3)

[5] = ITC single run: date 200402, injection 1
[6] = ITC single run: date 200402, injection 2
[7] = ITC single run: date 200402, injection 3

T2 sequence (P60520 2-115): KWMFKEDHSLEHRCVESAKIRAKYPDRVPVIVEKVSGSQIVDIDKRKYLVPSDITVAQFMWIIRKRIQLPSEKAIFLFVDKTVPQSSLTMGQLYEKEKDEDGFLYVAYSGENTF

SMILES	Kd [1] [µM]	Kd ([2]; read-out: KD values ± SEM) [µM]	Kd [3] [µM]	Ka [3, 5]	Ka [3, 6]	Ka [3, 7]	further results
CC(=O)N[C@@H](CCC(N)=O)C(=O)N[C@@H](CC(N)=O)C(=O)N[C@@H](CC(C)C)C(=O)N[C@@H](CO)C(=O)N[C@@H](CCCNC(=N)N)C(=O)N[C@@H](CO)C(=O)N[C@@H](Cc1c[nH]c2ccccc12)C(=O)N[C@@H](Cc1c[nH]cn1)C(=O)N[C@@H](CC(=O)O)C(=O)N[C@H](C(=O)N[C@@H](CCC(N)=O)C(=O)N[C@H](C(=O)N[C@@H](CO)C(=O)N[C@@H](CO)C(=O)N[C@@H](C)C(=O)N[C@@H](Cc1ccc(O)cc1)C(N)=O)C(C)C)C(C)C [TPD52L2_91–106 wt]	760 ± 150	–	–	–	–	–	–
CC(=O)N[C@@H](CC(C)C)C(=O)N[C@@H](CCC(=O)O)C(=O)N[C@@H](CC(=O)O)C(=O)N[C@@H](CC(=O)O)C(=O)N[C@@H](CCC(=O)O)C(=O)N[C@@H](CCC(N)=O)C(=O)N[C@@H](Cc1ccccc1)C(=O)N[C@H](C(=O)N[C@@H](COP(=O)(O)O)C(=O)N[C@@H](CC(C)C)C(=O)N[C@@H](Cc1ccc(O)cc1)C(=O)NCC(=O)N[C@H](C(=O)N[C@@H](CCC(=O)O)C(=O)N[C@@H](CCC(=O)O)C(=O)N[C@@H](Cc1ccc(O)cc1)C(N)=O)[C@@H](C)O)C(C)C [TBK1_164–179 pS]	1.3 ± 0.3	2.8 ± 0.6	2.67	270000	480000	520000	–
CC(=O)N[C@@H](CC(C)C)C(=O)N[C@@H](CCC(=O)O)C(=O)N[C@@H](CC(=O)O)C(=O)N[C@@H](CC(=O)O)C(=O)N[C@@H](CCC(=O)O)C(=O)N[C@@H](CCC(N)=O)C(=O)N[C@@H](Cc1ccccc1)C(=O)N[C@H](C(=O)N[C@@H](CO)C(=O)N[C@@H](CC(C)C)C(=O)N[C@@H](Cc1ccc(O)cc1)C(=O)NCC(=O)N[C@H](C(=O)N[C@@H](CCC(=O)O)C(=O)N[C@@H](CCC(=O)O)C(=O)N[C@@H](Cc1ccc(O)cc1)C(N)=O)[C@@H](C)O)C(C)C [TBK1_164–179 wt]	10.5 ± 0.1	19 ± 4	8	143000	170000	144000	Ka ([3]; ITC single run: date 2101 new, injection 1): 84300
CC(=O)N[C@@H](C)C(=O)N[C@@H](CC(N)=O)C(=O)N[C@@H](CO)C(=O)N[C@@H](Cc1c[nH]c2ccccc12)C(=O)N[C@@H](CCC(N)=O)C(=O)N[C@@H](CC(C)C)C(=O)N[C@H](C(=O)N[C@@H](CCC(=O)O)C(=O)N[C@H](C(=O)N1CCC[C@H]1C(=O)N[C@@H](CCC(=O)O)C(=O)N[C@@H](CCCCN)C(=O)N[C@@H](CCCNC(=N)N)C(=O)N[C@@H](CCCCN)C(=O)N[C@@H](CCC(=O)O)C(=O)N[C@@H](CCC(=O)O)C(N)=O)[C@@H](C)OP(=O)(O)O)C(C)C [DLGAP4_907–922 pS] (Ac-ANSWQLVE[pT]PEKRKEE-NH2)	–	–	–	–	–	–	Kd [2]: 150 ± 32 µM
CC(=O)N[C@@H](Cc1ccc(O)cc1)C(=O)N[C@@H](CCCCN)C(=O)N[C@@H](CCCCN)C(=O)N[C@@H](CCC(N)=O)C(=O)N[C@@H](CC(C)C)C(=O)N[C@@H](CCCCN)C(=O)N[C@@H](CCCNC(=N)N)C(=O)N[C@@H](Cc1ccccc1)C(=O)N[C@@H](COP(=O)(O)O)C(=O)N[C@H](C(=O)N[C@@H](CCC(=O)O)C(=O)N[C@@H](CCC(=O)O)C(=O)N[C@@H](Cc1ccccc1)C(=O)N[C@H](C(=O)N[C@@H](CC(C)C)C(=O)N[C@@H](CC(C)C)C(=O)O)C(C)C)[C@@H](C)O [ATG4C444–458 pS]	1.9 ± 0.3	0.1 ± 0.2	–	–	–	–	IC50 ([4]; Fig 4B, MAP1LC3A ATG8, FP displacement, technical triplicates, read-out: IC50 values of displacement curves, with SEM): 5.5 ± 0.7 µM; Kd ([4]; read-out: KD values ± SEM): 1.3 ± 0.1 µM
CC(=O)N[C@@H](CCC(N)=O)C(=O)N[C@@H](CC(N)=O)C(=O)N[C@@H](CC(C)C)C(=O)N[C@@H](CO)C(=O)N[C@@H](CCCNC(=N)N)C(=O)N[C@@H](COP(=O)(O)O)C(=O)N[C@@H](Cc1c[nH]c2ccccc12)C(=O)N[C@@H](Cc1c[nH]cn1)C(=O)N[C@@H](CC(=O)O)C(=O)N[C@H](C(=O)N[C@@H](CCC(N)=O)C(=O)N[C@H](C(=O)N[C@@H](CO)C(=O)N[C@@H](CO)C(=O)N[C@@H](C)C(=O)N[C@@H](Cc1ccc(O)cc1)C(N)=O)C(C)C)C(C)C [TPD52L2_91–106 pS]	61 ± 2	–	–	–	–	–	–
